According to PubChem BioAssay AID330 (DTP/NCI, 2004):
Several values for one entry are separate records, joined by “and”; a condition that tells them apart may be missing. Equal values may be shown once. Toxic doses and inconclusive results are not listed. Rule for the calls: active = survival T/C of 150% or more; inactive = T/C below 125% in these data.

Test system: P388 leukemia ip, CD2F1 mice, survival T/C
Test: NCI In Vivo Anticancer Drug Screen. Data for tumor model P388 Leukemia (intraperitoneal) in CD2F1 (CDF1) mice
Conditions: endpoint: median survival time, higher = longer survival
Procedure, shortened: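 Mice carrying the transplanted tumor received test compound or vehicle. Survival was recorded in each group, and the value is the treated-group measurement divided by that of the vehicle-treated control group.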

[1] = dose: 100.0 mg/kg/injection, schedule: Q01DX009 (ip), vehicle: saline with Tween-80
[2] = dose: 12.5 mg/kg/injection, schedule: Q01DX009 (ip), vehicle: saline with Tween-80
[3] = dose: 25.0 mg/kg/injection, schedule: Q01DX009 (ip), vehicle: saline with Tween-80
[4] = dose: 50.0 mg/kg/injection, schedule: Q01DX009 (ip), vehicle: saline with Tween-80
[5] = dose: 50.0 mg/kg/injection, schedule: Q01DX005 (ip), vehicle: Klucel (hydroxypropylcellulose) (HPC)
[6] = dose: 100.0 mg/kg/injection, schedule: Q01DX005 (ip), vehicle: Klucel (hydroxypropylcellulose) (HPC)
[7] = dose: 60.0 mg/kg/injection, schedule: Q01DX005 (ip), vehicle: saline with Tween-80
[8] = dose: 120.0 mg/kg/injection, schedule: Q01DX005 (ip), vehicle: saline with Tween-80
[9] = dose: 240.0 mg/kg/injection, schedule: Q01DX005 (ip), vehicle: saline with Tween-80

Measured: T/C

COc1c2occc2c(CN)c2ccc(=O)oc12
inactive: dose: 7.5 mg/kg/injection, schedule: Q01DX005 (ip), vehicle: saline 98 % of control | dose: 15.0 mg/kg/injection, schedule: Q01DX005 (ip), vehicle: saline 99 % of control | dose: 30.0 mg/kg/injection, schedule: Q01DX005 (ip), vehicle: saline 97 % of control

CC1(C)C/C(=C\c2cc(O)ccc2[N+](=O)[O-])C(=O)c2ccccc21
inactive: [1] 86 % of control | dose: 200.0 mg/kg/injection, schedule: Q01DX009 (ip), vehicle: saline with Tween-80 95 % of control | dose: 400.0 mg/kg/injection, schedule: Q01DX009 (ip), vehicle: saline with Tween-80 90 % of control

Cc1c(-c2ccccc2)ccnc1/C=N/NC(=S)NCc1cccnc1
inactive: [2] 98 % of control | [3] 96 % of control | [4] 111 % of control and 122 % of control | [1] 88 % of control

Nc1nc(SCc2ccccn2)c2[nH]cnc2n1
inactive: dose: 66.0 mg/kg/injection, schedule: Q04DX003 (ip), vehicle: Klucel (hydroxypropylcellulose) (HPC) 122 % of control

CCN(CC)C(=O)C(F)C(F)(F)C(F)(F)C(F)C(=O)N(CC)CC (stereo not drawn)
inactive: dose: 50.0 mg/kg/injection, schedule: Q01DX009 (ip), vehicle: Klucel (hydroxypropylcellulose) (HPC) 108 % of control | dose: 100.0 mg/kg/injection, schedule: Q01DX009 (ip), vehicle: Klucel (hydroxypropylcellulose) (HPC) 99 % of control | dose: 200.0 mg/kg/injection, schedule: Q01DX009 (ip), vehicle: Klucel (hydroxypropylcellulose) (HPC) 98 % of control

O=c1[nH]c(=O)n(C2CC(O)C(CO)C2)cc1F (stereo not drawn)
inactive: dose: 200.0 mg/kg/injection, schedule: Q01DX005 (ip), vehicle: saline + Tween-80 + alcohol 100 % of control | dose: 400.0 mg/kg/injection, schedule: Q01DX005 (ip), vehicle: saline + Tween-80 + alcohol 120 % of control

CC(NC(=O)OCc1ccccc1)C(=O)NC(C(=O)O)C(C)O (stereo not drawn)
inactive: [5] 98 % of control | [6] 99 % of control | dose: 200.0 mg/kg/injection, schedule: Q01DX005 (ip), vehicle: Klucel (hydroxypropylcellulose) (HPC) 96 % of control

CCCCN(C)N=Nc1ccccc1C(N)=O
inactive: [3] 109 % of control | [4] 118 % of control | dose: 100.0 mg/kg/injection, schedule: Q04DX003 (ip), vehicle: saline with Tween-80 113 % of control | dose: 176.0 mg/kg/injection, schedule: Q04DX003 (ip), vehicle: saline with Tween-80 109 % of control | dose: 200.0 mg/kg/injection, schedule: Q04DX003 (ip), vehicle: saline with Tween-80 109 % of control | dose: 264.0 mg/kg/injection, schedule: Q04DX003 (ip), vehicle: saline with Tween-80 109 % of control | dose: 400.0 mg/kg/injection, schedule: Q04DX003 (ip), vehicle: saline with Tween-80 100 % of control

CCCCOCN(COCCCC)c1ccccc1
inactive: dose: 100.0 mg/kg/injection, schedule: Q01DX001 (ip), vehicle: saline with Tween-80 104 % of control | dose: 200.0 mg/kg/injection, schedule: Q01DX001 (ip), vehicle: saline with Tween-80 113 % of control | dose: 400.0 mg/kg/injection, schedule: Q01DX001 (ip), vehicle: saline with Tween-80 109 % of control

O=C1c2ccccc2C(=O)N1CCS(=O)(=O)Cl
inactive: [2] 100 % of control | [3] 106 % of control | [4] 114 % of control | [1] 117 % of control

NC(=O)CCC(N)C(=O)O (stereo not drawn)
inactive: [2] 105 % of control | [3] 119 % of control | [4] 112 % of control | dose: 50.0 mg/kg/injection, schedule: Q01DX009 (ip), vehicle: saline 113 % of control | dose: 100.0 mg/kg/injection, schedule: Q01DX009 (ip), vehicle: saline 101 % of control and 116 % of control | dose: 200.0 mg/kg/injection, schedule: Q01DX009 (ip), vehicle: saline 90 % of control and 109 % of control | dose: 400.0 mg/kg/injection, schedule: Q01DX009 (ip), vehicle: saline 109 % of control

c1ccc2c(c1)[nH]c1c2c(N2CCOCC2)nn2cnnc12
inactive: dose: 6.25 mg/kg/injection, schedule: Q01DX005 (ip), vehicle: Klucel (hydroxypropylcellulose) (HPC) 101 % of control | dose: 12.5 mg/kg/injection, schedule: Q01DX005 (ip), vehicle: Klucel (hydroxypropylcellulose) (HPC) 100 % of control | dose: 25.0 mg/kg/injection, schedule: Q01DX005 (ip), vehicle: Klucel (hydroxypropylcellulose) (HPC) 89 % of control | [5] 99 % of control | [7] 95 % of control | [6] 100 % of control | [8] 93 % of control | [9] 98 % of control

CCCCCC(=O)NC1C(O)OC(CO)C(O)C1O (stereo not drawn)
inactive: [5] 106 % of control | [6] 97 % of control

O=C(Nc1ccc(S(=O)(=O)Nc2nccs2)cc1)c1cccnc1Nc1cccc(Cl)c1
inactive: [7] 111 % of control | [8] 113 % of control | [9] 106 % of control
